For orientation: IC50 means the point on the concentration scale where inhibition reaches its midpoint. Low values mean inhibition by little substance, high ones a need for much substance.

One molecule from patent US10562891B2, “Quinazolinones as PARP14 inhibitors” (Ribon Therapeutics Inc., priority 2017, dated 2020) can be followed below.

The structures appear in SMILES notation.

One assay has as its system 4T1 cells. The assay can be described thus: Inhibition of tumor growth in the 4T1 murine syngeneic model. The assay is classed as in vivo, female BALB/c mice. The note with it: 4T1 orthotopic in mammary fat pad, 500 mg/kg PO BID*21 days, treatment group versus vehicle group, study terminated D20. The source says: FIGS. 3A and 4A illustrate that a PARP14 inhibitor (Example 235) reduces tumor growth in the murine syngeneic models (A) 4T1 and (B) LL/2. For the 4T1 study (FIGS. 3A and 3B), female BALB/c mice were inoculated orthotopically in the mammary fat pad with 1×10^5 4T1 cells (ATCC, CRL-2539™) for tumor development. Seven days after tumor inoculation, 16 mice with tumor size ranging from 41-78 mm^3 (average tumor size 56 mm^3) were selected and assigned into 2 groups using stratified randomization with 8 mice in each group based upon their tumor volumes. The treatments were started from the next day post randomization (defined as randomization day DO) and were treated with vehicle (0.5% methylcellulose +0.2% Tween 80), or the compound of Example 235 (500 mg/kg PO BID*21 days). The tumor sizes were measured three times per week during the treatment. The entire study was terminated on D20.
(§1) Statistical significance, calculated using 2way ANOVA multiple comparisons in which each treatment group was compared to vehicle control, is indicated by an asterisk. Statistics were performed on groups with less than 20% animal loss (D20 for 4T1, D17 for LL/2). Survival benefit was determined for the LL/2 study (FIG. 4B). Individual mice were euthanized once they reached the termination endpoint (TV>2000 mm3). […]

Another assay deals with LL/2 cells. The assay can be described thus: Inhibition of tumor growth and survival in the LL/2 murine syngeneic model. The assay is classed as in vivo, female C57BL/6 mice. As to conditions: LL/2 subcutaneous right flank, 500 mg/kg PO BID*21 days, treatment group versus vehicle group, study terminated D21.
Source text: For the LL/2 study (FIGS. 4A-4C), female C57BL/6 mice were inoculated subcutaneously in the right flank with 5×10^5 LL/2 cells (ATCC, CRL-1642™) for tumor development. Five days after tumor inoculation, 16 mice with tumor size ranging from 37-72 mm^3 (average tumor size 51 mm^3) were selected and assigned into 2 groups using stratified randomization with 8 mice in each group based upon their tumor volumes. The treatments were started from the next day post randomization (defined as randomization day DO) and were treated with vehicle (0.5% methylcellulose +0.2% Tween 80), or the compound of Example 235 (500 mg/kg PO BID*21 days). The tumor sizes were measured three times per week during the treatment. The entire study was terminated on D21.
as §1, with “mm3). The time from treatment initiation to termination was deemed as its survival time and plotted in a Kaplan-Meier survival curve format. Mice remaining at study end date of 21 days were euthanized at day 21 after treatment initiation.” for “mm3).”

Assay [1] addresses catalytic domain of human PARP14 (Homo sapiens (Human), UniProt Q460N5). Nature of the assay: Enzymatic assay for inhibition of PARP14 (DELFIA, auto-modification with biotin-NAD). Format: biochemical. As to conditions: auto-modification of PARP14 by biotin-NAD, 50 nM PARP14, 3 μM biotin-NAD. Put shortly: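 DELFIA auto-modification read-out: europium-streptavidin bound to biotin-NAD incorporated onto nickel-captured His-TEV PARP14 catalytic domain. Compound preincubated 30 min, then 50 nM enzyme with 3 μM biotin-NAD reacted 3 h, all at 25 °C, pH 8, then NAD quench. Percent inhibition normalized to rucaparib/DMSO wells, fitted (4- or 3-parameter) for IC50.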

Chain of catalytic domain of human PARP14 (Q460N5 1611-1801): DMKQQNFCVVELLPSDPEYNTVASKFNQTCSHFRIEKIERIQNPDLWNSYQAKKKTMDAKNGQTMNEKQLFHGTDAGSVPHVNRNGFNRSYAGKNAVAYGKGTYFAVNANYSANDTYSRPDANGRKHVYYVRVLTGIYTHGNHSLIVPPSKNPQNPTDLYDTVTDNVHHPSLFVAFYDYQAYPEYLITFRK

As for `O=c1[nH]c(CS[C@H]2CC[C@H](O)CC2)nc2cc(OCC3CC3)cc(F)c12` [Example 235, 7-(Cyclopropylmethoxy)-5-fluoro-2-(((trans-4-hydroxycyclohexyl)thio)methyl)quinazolin-4(3H)-one], the Tumor growth inhibition in the assay with 4T1 cells was 31%; in the assay with LL/2 cells, 63%. This molecule registered a half-inhibitory concentration (IC50) in assay [1] below 1000 nM.
